Measured values taken from ChEMBL document CHEMBL1130872, “Neuronorm is a potent and water soluble neurokinin A receptor antagonist” (Bioorg Med Chem Lett, 1998).

Experiments:
[1] = target: T1, Substance-K receptor (Cavia porcellus) (UniProt Q64077); test: Antagonist Activity of compound (100 nM) at Tachykinin receptor 2 at guinea pig trachea in the presence of P-Ala8-NKA[4-IO] as agonist; type: functional
T1 sequence (whole entry): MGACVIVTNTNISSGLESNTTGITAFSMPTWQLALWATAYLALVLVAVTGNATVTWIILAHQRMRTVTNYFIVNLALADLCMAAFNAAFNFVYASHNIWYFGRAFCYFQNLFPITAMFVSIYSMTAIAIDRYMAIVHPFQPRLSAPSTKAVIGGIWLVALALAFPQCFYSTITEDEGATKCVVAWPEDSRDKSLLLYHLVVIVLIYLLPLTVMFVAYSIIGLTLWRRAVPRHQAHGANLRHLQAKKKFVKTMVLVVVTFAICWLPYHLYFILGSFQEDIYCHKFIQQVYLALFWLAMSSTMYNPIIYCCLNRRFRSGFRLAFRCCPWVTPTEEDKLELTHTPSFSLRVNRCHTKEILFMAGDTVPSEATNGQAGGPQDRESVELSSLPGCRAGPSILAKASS

[2] = target: T1, Substance-K receptor (Cavia porcellus); test: Antagonist Activity of compound (10 nM) at Tachykinin receptor 2 at guinea pig trachea in the presence of P-Ala8-NKA[4-IO] as agonist; type: functional
[3] = target: T1, Substance-K receptor (Cavia porcellus); test: Antagonist Activity of compound (30 nM) at Tachykinin receptor 2 at guinea pig trachea in the presence of P-Ala8-NKA[4-IO] as agonist; type: functional
Substance-K receptor = target: T2, Substance-K receptor (Cavia porcellus, UniProt Q64077); test: Compound was evaluated for antagonistic activity towards Tachykinin receptor 2 at guinea pig trachea; type: functional, tissue-based; conditions: read-out: pA2 (converted)
T2 sequence (Q64077 whole entry): T1 sequence (whole entry)

Structure (SMILES): CSCC[C@@H]1NC(=O)C(CC(C)C)NC(=O)C2CNC(=O)C[C@H](NC1=O)C(=O)N[C@@H](Cc1c[nH]c3ccccc13)C(=O)NC(Cc1ccccc1)C(=O)N2 (single isomer, unassigned)
- Emax [1]: 98%
- Emax [2]: 93%
- Emax [3]: 90%
- Kb (Substance-K receptor): 0.0234 µM
